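Results reflect a 48-hour exposure of cells in 96-well plates to compound at five concentrations. GI50 = concentration required for 50% inhibition of growth. Definition used: TGI = concentration required for complete inhibition of growth.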
What was measured:
Test in all cases: growth of human tumour cells (NCI), 48 h
SK-OV-3 ovarian = tested on: SK-OV-3 ovarian
SF-539 CNS = tested on: SF-539 CNS
MOLT-4 leukemia = tested on: MOLT-4 leukemia
IGROV1 ovarian = tested on: IGROV1 ovarian
CCRF-CEM leukemia = tested on: CCRF-CEM leukemia
NCI-H460 lung = tested on: NCI-H460 lung
RXF 393 renal = tested on: RXF 393 renal
SNB-19 CNS = tested on: SNB-19 CNS
NCI-H226 lung = tested on: NCI-H226 lung
HS 578T breast = tested on: HS 578T breast

In the case of COc1ccc2c(c1)C1(C=N2)CCN(C(C)=O)CC1, the TGI (SK-OV-3 ovarian) is reported as > 100 µM, the TGI (SF-539 CNS) is reported as > 100 µM and the TGI (MOLT-4 leukemia) is reported as > 100 µM. For the same compound, the TGI (IGROV1 ovarian) was > 100 µM, the TGI (CCRF-CEM leukemia) was > 100 µM and the TGI (NCI-H460 lung) was > 100 µM.
For NC(CCc1nc(-c2ccc(Cl)cc2)cs1)C(=O)O (stereo not drawn), the TGI (SK-OV-3 ovarian) was > 100 µM, the TGI (RXF 393 renal) was > 100 µM and the TGI (MOLT-4 leukemia) was > 100 µM. The TGI (IGROV1 ovarian) was > 100 µM, the TGI (CCRF-CEM leukemia) was > 100 µM and the TGI (NCI-H460 lung) was > 100 µM. For the same compound, the TGI (SNB-19 CNS) was > 100 µM and the TGI (NCI-H226 lung) was > 100 µM.
With C=CCc1cc(OC)c2c(c1)C(O)CC(c1ccc(OC)c(OC)c1)O2 (stereo not drawn) the TGI (SK-OV-3 ovarian) was > 100 µM, the TGI (SF-539 CNS) was > 100 µM and the TGI (MOLT-4 leukemia) was > 100 µM. The TGI (IGROV1 ovarian) was > 100 µM, the TGI (CCRF-CEM leukemia) was > 100 µM and the TGI (NCI-H460 lung) was > 100 µM. For the same compound, the TGI (SNB-19 CNS) was > 100 µM and the TGI (NCI-H226 lung) was > 100 µM.
With O=C1C2=C(SCCS2)C(=O)c2ccccc21 the TGI (SK-OV-3 ovarian) was 3.12 µM, the TGI (SF-539 CNS) was 3.09 µM and the TGI (RXF 393 renal) was 3.56 µM. It also gave a TGI (MOLT-4 leukemia) of 27.7 µM, a TGI (IGROV1 ovarian) of 3.17 µM and a TGI (CCRF-CEM leukemia) of 4.2 µM. It also gave a TGI (NCI-H460 lung) of 3.38 µM, a TGI (SNB-19 CNS) of 2.87 µM and a TGI (NCI-H226 lung) of 3.57 µM.
In the case of CC(C)=CCCc1c(C)ccc2c1C(=O)C(=O)C(C(C)C)=C2, the TGI (SK-OV-3 ovarian) is reported as > 22 µM, the TGI (SF-539 CNS) is reported as 8.84 µM and the TGI (RXF 393 renal) is reported as 6.79 µM. The TGI (MOLT-4 leukemia) was 20 µM, the TGI (IGROV1 ovarian) was > 22 µM and the TGI (CCRF-CEM leukemia) was 1.9 µM. For the same compound, the TGI (NCI-H460 lung) was > 22 µM, the TGI (SNB-19 CNS) was > 22 µM and the TGI (NCI-H226 lung) was > 22 µM.
CCCCCCCCSC1=CC(=O)c2nc3ccccc3c3ccnc1c23 was tested, and the GI50 (SK-OV-3 ovarian) was > 100 µM, the TGI (SK-OV-3 ovarian) was > 100 µM and the GI50 (SF-539 CNS) was > 100 µM. For the same compound, the TGI (SF-539 CNS) was > 100 µM, the GI50 (MOLT-4 leukemia) was 6.03 µM and the TGI (MOLT-4 leukemia) was > 100 µM. The GI50 (IGROV1 ovarian) was > 100 µM, the TGI (IGROV1 ovarian) was > 100 µM and the GI50 (CCRF-CEM leukemia) was 60.7 µM. The TGI (CCRF-CEM leukemia) was > 100 µM, the GI50 (NCI-H460 lung) was 26.3 µM and the TGI (NCI-H460 lung) was > 100 µM. For the same compound, the GI50 (SNB-19 CNS) was > 100 µM, the TGI (SNB-19 CNS) was > 100 µM and the GI50 (HS 578T breast) was > 100 µM. The TGI (HS 578T breast) was > 100 µM, the GI50 (NCI-H226 lung) was 0.544 µM and the TGI (NCI-H226 lung) was 96.8 µM.
CC(=O)N1[C@H](C(=O)O)CS[C@H]1c1ccncc1 was tested, and the TGI (SF-539 CNS) was > 100 µM, the TGI (RXF 393 renal) was > 100 µM and the TGI (MOLT-4 leukemia) was > 100 µM. For the same compound, the TGI (IGROV1 ovarian) was > 100 µM, the TGI (CCRF-CEM leukemia) was > 100 µM and the TGI (NCI-H460 lung) was > 100 µM. For the same compound, the TGI (SNB-19 CNS) was > 100 µM and the TGI (NCI-H226 lung) was > 100 µM.
In the case of O=[S@@]1Nc2ccc(Br)cc2S1, the TGI (SK-OV-3 ovarian) is reported as > 100 µM, the TGI (SF-539 CNS) is reported as > 100 µM and the TGI (MOLT-4 leukemia) is reported as > 100 µM. For the same compound, the TGI (IGROV1 ovarian) was > 100 µM, the TGI (CCRF-CEM leukemia) was > 100 µM and the TGI (SNB-19 CNS) was 39.3 µM. For the same compound, the TGI (NCI-H226 lung) was > 100 µM.
Compound CC(=O)OC(C)C(=O)C1c2cccc(O)c2C(=O)c2c(O)cc(C)cc21 (stereo not drawn) has a TGI (SK-OV-3 ovarian) of 1.81 µM, a TGI (SF-539 CNS) of 0.589 µM and a TGI (RXF 393 renal) of 0.813 µM. It also gave a TGI (MOLT-4 leukemia) of 8.17 µM, a TGI (IGROV1 ovarian) of 1.66 µM and a TGI (CCRF-CEM leukemia) of 6.05 µM. It also gave a TGI (NCI-H460 lung) of 1.35 µM, a TGI (SNB-19 CNS) of 1.6 µM and a TGI (NCI-H226 lung) of 1.03 µM.
O=C(O)c1cc(C(=O)O)cc(N2C(=O)c3ccccc3C2=O)c1 was tested, and the TGI (SK-OV-3 ovarian) was > 100 µM, the TGI (SF-539 CNS) was > 100 µM and the TGI (RXF 393 renal) was > 100 µM. For the same compound, the TGI (IGROV1 ovarian) was > 100 µM, the TGI (NCI-H460 lung) was > 100 µM and the TGI (SNB-19 CNS) was > 100 µM. For the same compound, the TGI (HS 578T breast) was > 100 µM and the TGI (NCI-H226 lung) was > 100 µM.
O=C(O)CCSC(=O)Nc1cccc(F)c1 was tested, and the TGI (SF-539 CNS) was > 100 µM, the TGI (MOLT-4 leukemia) was > 100 µM and the TGI (CCRF-CEM leukemia) was > 100 µM. The TGI (NCI-H460 lung) was > 100 µM, the TGI (SNB-19 CNS) was > 100 µM and the TGI (NCI-H226 lung) was > 100 µM.
For CNC(=O)c1cc(Oc2ccc3nc(NC(=O)Nc4ccc(Cl)c(C(F)(F)F)c4)sc3c2)ccn1, the GI50 (SK-OV-3 ovarian) was 1.89 µM, the TGI (SK-OV-3 ovarian) was 4.21 µM and the GI50 (RXF 393 renal) was 1.93 µM. It also gave a TGI (RXF 393 renal) of 4.57 µM, a GI50 (IGROV1 ovarian) of 2.02 µM and a TGI (IGROV1 ovarian) of 5.12 µM. It also gave a GI50 (SNB-19 CNS) of 2.77 µM, a TGI (SNB-19 CNS) of 10.2 µM and a GI50 (HS 578T breast) of 1.53 µM. It also gave a TGI (HS 578T breast) of 6.27 µM, a GI50 (NCI-H226 lung) of 2.69 µM and a TGI (NCI-H226 lung) of 7.47 µM.

Reference: PubChem BioAssay (NCI)
